# Patent publication US6589990B1, “Methods and compositions for misoprostol compound treatment of erectile dysfunction” (priority 1997, dated 2003)
# Like-named read-outs stand apart in the source and are kept apart here.
# Tests used:
# [1] = system: vessels of the glans penis; experiment: Vasodilatory action, into the corpus cavernosum versus topical; assay type: in vivo; conditions: external application; compared with misoprostol
# Text: This is due to the differences in the mechanism of action on erectile function between misoprostol and other vasodilators (e.g. alprostadil): misoprostol applied topically can penetrate into the corpora cavernosa and can act on the smooth muscle fibers of the vessels, compared to other vasodilators. Further, its major site of action is on the vessels of the glans penis, and to a lesser extent, the prepuce.
# [2] = system: human male subjects having ED; experiment: Clinical trials in human male subjects having ED; assay type: in vivo
# Protocol: Subjects were 52 men aged 22-67 years, with ED of various causes. […] In all trials with these subjects, the following methods were applied successively for from a few days to 4 weeks: intracavernosal injection of 1.0 ml papaverine solution, 40 μγ/ml; […]; […]; topical application to the glans penis 0.08 to 0.1 ml, misoprostol gel 1000 μg/ml; intraurethral application of 0.08 to 0.1 ml misoprostol gel 1000 μg/ml; and topical application to the glans penis 0.1 ml. Gel of placebo.
# In the tests using either the gel or cream containing about […] of misoprostol per 0.1 ml, the formulation was applied by the patients themselves using their finger and a few retroactive movements of the prepuce on the glans of penis until the ointment was completely absorbed. The intraurethral gel was instilled by the patients with help of a thin syringe and a lubricating medium (propylene glycol or glycerin) to facilitate insertion of the syringe.
# In some patients with venous leak problems, a bandage tourniquet with a rubber band (or condom) on the base of the penis was applied 15-20 minutes after application of misoprostol. This method was particularly effective. […] In various subjects with ED due to one of several different causes, “pelvic exercises” were recommended (Kegel exercises) while the erection was developing. […] All tests were performed in the clinic without visual or any other type of stimulation.
# [3] = Solubility in water; assay type: physicochemical
# [4] = human, in vivo
# [5] = cited from earlier work
# [6] = Single high dosage, systemic undesirable effects (Example 9); conditions: in the presence of α-cyclodextrin
# [7] = at 35° C.; cited from earlier work
# [8] = total (N = 52), externally applied gel, 80-100 μg
# [9] = total (N = 52), intraurethral applied gel, 80-100 μg
# [10] = total (N = 52), intracavernosal injection, 0.5 ml of 1.0 mg/ml
# [11] = total (N = 52), intraurethral ointment or γ-cyclodextrin complex in K-Y jelly, 1000 μg PGE1 in 0.1 ml
# [12] = total (N = 52), intracavernosal injection, 1 ml of 4%
structure (smiles),measurement,setting,value
CCCCC(C)(O)C/C=C/[C@H]1[C@H](O)CC(=O)[C@@H]1CCCCCCC(=O)O (mixture of isomers) [misoprostol acid],topical vasodilation,[1],equivalent strong topical vasodilation
"CCCCC(C)(O)C/C=C/[C@H]1[C@H](O)CC(=O)[C@@H]1CCCCCCC(=O)OC (mixture of isomers) [misoprostol, (11a 13E)-(±)-11,16-dihydroxy-16-methyl-9-oxoprost-13-en-1-oic acid methyl ester]",allergic or other topical reaction,[2]; application to glans penis or urethra,No allergic or any other topical reaction was reported except for redness of the glans
same,subjects having a positive pharmacological outcome,"[2]; hormonal ED (N = 1), externally applied gel, 80-100 μg",1
same,subjects having a positive pharmacological outcome,"[2]; hormonal ED (N = 1), intraurethral applied gel, 80-100 μg",1
same,subjects having a positive pharmacological outcome,"[2]; neurogenic ED (N = 5), externally applied gel, 80-100 μg",4
same,subjects having a positive pharmacological outcome,"[2]; neurogenic ED (N = 5), intraurethral applied gel, 80-100 μg",5
same,subjects having a positive pharmacological outcome,"[2]; psychogenic ED (N = 15), externally applied gel, 80-100 μg",13
same,subjects having a positive pharmacological outcome,"[2]; psychogenic ED (N = 15), intraurethral applied gel, 80-100 μg",14
same,percent of subjects having a positive pharmacological outcome,[2]; [8],62%
same,subjects having a positive pharmacological outcome,[2]; [8],32
same,percent of subjects having a positive pharmacological outcome,[2]; [9],73%
same,subjects having a positive pharmacological outcome,[2]; [9],38
same,subjects having a positive pharmacological outcome,"[2]; undetermined etiology (N = 7), externally applied gel, 80-100 μg",4
same,subjects having a positive pharmacological outcome,"[2]; undetermined etiology (N = 7), intraurethral applied gel, 80-100 μg",5
same,subjects having a positive pharmacological outcome,"[2]; vascular ED (N = 24), externally applied gel, 80-100 μg",10
same,subjects having a positive pharmacological outcome,"[2]; vascular ED (N = 24), intraurethral applied gel, 80-100 μg",13
same,solubility in water (in words),[3],water soluble
same,"single high dose that can cause systemic undesirable effects (fatigue, erythema and diarrhea)",[4],> 1000 micrograms
same,"single high dose that can cause systemic undesirable effects (fatigue, erythema and diarrhea)",[4]; male,> 1800 micrograms
same,undesirable effect of oral therapy,[5],male impotence
same,"single higher dose allowed, undesirable effects reduced or eliminated",[6],> 2000 micrograms
CCCCC[C@H](O)/C=C/[C@H]1[C@H](O)CC(=O)[C@@H]1CCCCCCC(=O)O [alprostadil],subjects having a positive pharmacological outcome,"[2]; hormonal ED (N = 1), intracavernosal injection, 0.5 ml of 1.0 mg/ml",1
same,subjects having a positive pharmacological outcome,"[2]; hormonal ED (N = 1), intraurethral ointment or γ-cyclodextrin complex in K-Y jelly, 1000 μg PGE1 in 0.1 ml",0
same,subjects having a positive pharmacological outcome,"[2]; neurogenic ED (N = 5), intracavernosal injection, 0.5 ml of 1.0 mg/ml",4
same,subjects having a positive pharmacological outcome,"[2]; neurogenic ED (N = 5), intraurethral ointment or γ-cyclodextrin complex in K-Y jelly, 1000 μg PGE1 in 0.1 ml",1
same,subjects having a positive pharmacological outcome,"[2]; psychogenic ED (N = 15), intracavernosal injection, 0.5 ml of 1.0 mg/ml",11
same,subjects having a positive pharmacological outcome,"[2]; psychogenic ED (N = 15), intraurethral ointment or γ-cyclodextrin complex in K-Y jelly, 1000 μg PGE1 in 0.1 ml",9
same,percent of subjects having a positive pharmacological outcome,[2]; [10],60%
same,subjects having a positive pharmacological outcome,[2]; [10],31
same,percent of subjects having a positive pharmacological outcome,[2]; [11],31%
same,subjects having a positive pharmacological outcome,[2]; [11],16
same,subjects having a positive pharmacological outcome,"[2]; undetermined etiology (N = 7), intracavernosal injection, 0.5 ml of 1.0 mg/ml",5
same,subjects having a positive pharmacological outcome,"[2]; undetermined etiology (N = 7), intraurethral ointment or γ-cyclodextrin complex in K-Y jelly, 1000 μg PGE1 in 0.1 ml",1
same,subjects having a positive pharmacological outcome,"[2]; vascular ED (N = 24), intracavernosal injection, 0.5 ml of 1.0 mg/ml",10
same,subjects having a positive pharmacological outcome,"[2]; vascular ED (N = 24), intraurethral ointment or γ-cyclodextrin complex in K-Y jelly, 1000 μg PGE1 in 0.1 ml",5
same,solubility in water,[7],8000 micrograms/100 ml
COc1ccc(Cc2nccc3cc(OC)c(OC)cc23)cc1OC [papaverine],subjects having a positive pharmacological outcome,"[2]; hormonal ED (N = 1), intracavernosal injection, 1 ml of 4%",0
same,subjects having a positive pharmacological outcome,"[2]; neurogenic ED (N = 5), intracavernosal injection, 1 ml of 4%",2
same,subjects having a positive pharmacological outcome,"[2]; psychogenic ED (N = 15), intracavernosal injection, 1 ml of 4%",10
same,percent of subjects having a positive pharmacological outcome,[2]; [12],42%
same,subjects having a positive pharmacological outcome,[2]; [12],22
same,subjects having a positive pharmacological outcome,"[2]; undetermined etiology (N = 7), intracavernosal injection, 1 ml of 4%",3
same,subjects having a positive pharmacological outcome,"[2]; vascular ED (N = 24), intracavernosal injection, 1 ml of 4%",7
